Our source for the inhibition values is patent US5631401A, “Inhibitors of protein farnesyltransferase and squalene synthase” (Abbott Laboratories, priority 1995, dated 1997).

The target in experiment [1] is T1, Rat liver microsomal squalene synthase (Rattus norvegicus, UniProt Q02769).
T1 construct: Rat liver microsomes, the source of enzyme, were prepared; from tissue; host or cells: rat liver microsomes
T1 sequence (Q02769 1-416): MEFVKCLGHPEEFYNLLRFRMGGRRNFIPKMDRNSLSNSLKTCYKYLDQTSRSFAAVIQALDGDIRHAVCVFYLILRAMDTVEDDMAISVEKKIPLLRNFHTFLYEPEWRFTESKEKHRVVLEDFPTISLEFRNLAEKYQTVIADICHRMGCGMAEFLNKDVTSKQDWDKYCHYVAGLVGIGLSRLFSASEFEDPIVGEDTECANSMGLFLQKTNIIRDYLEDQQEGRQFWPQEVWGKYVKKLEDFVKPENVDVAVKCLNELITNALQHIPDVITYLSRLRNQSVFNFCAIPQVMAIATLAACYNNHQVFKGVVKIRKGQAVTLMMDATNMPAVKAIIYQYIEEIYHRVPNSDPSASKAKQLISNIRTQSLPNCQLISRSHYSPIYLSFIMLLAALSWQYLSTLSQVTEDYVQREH
Briefly: In vitro inhibition of squalene synthase (rat liver microsomes, 3H-farnesyl diphosphate). Format: biochemical. As to conditions: for inhibition at 1 µM: compared to controls with no test compound; for inhibition at 10 µM: 10 μM (footnote *), read-out: % Inhibition at 10 μM (squalene synthase, values marked *). As to the method:
In vitro inhibition of squalene synthase may be measured by the following procedure.
Rat liver microsomal squalene synthase activity was measured using radioactive farnesyl diphosphate as a substrate and quantitating squalene synthesis by counting the radioactive squalene formed.
Rat liver microsomes, the source of enzyme, were prepared according to the method of Gillies, P. J., et al., Exp. Molec. Pathol. 44: 329-339 (1986), a modification of the procedure of Erickson, S. K., and Cooper, A. D., Metabolism, 29: 991-996 (1980). Approximately 30 μg of microsomal protein was incubated for 10 minutes at 37° C. with 11 μM of ^3 H-farnesyl diphosphate, 49 mCi/mmol, and test compound in the presence of squalene (2 μL), Mg^++, KF, reduced B-nicotinamide adenine dinucleotide phosphate, dithiothreitol, and K2 PO4, pH 7.35, in a total volume of 200 μL. Oxygen was excluded from the closed incubation tube by degassing with nitrogen. The reaction was terminated by the addition of ethanolic KOH and after degassing with N2, the microsomal membranes were solubilized by heating at 60° C. for 30 minutes. The squalene was extracted into hexane, and the squalene was separated from all other radioactive molecules by passage over an activated alumina column. The solution was collected in scintillation vials, evaporated to dryness, liquid scintillation fluid was added, and the radioactivity was determined in a liquid scintillation counter. […]

Experiment [2] concerns the target T2, Rat brain protein farnesyltransferase (Rattus norvegicus, UniProt Q02293+Q04631).
T2 construct: The enzyme was purified according to Reiss, Y., et al., Cell, 62: 81-88 (1990), utilizing steps one through three; from tissue; host or cells: rat brain
The experiment is described as follows: In vitro inhibition of protein farnesyltransferase (biotin-lamin substrate, scintillation proximity assay). It counts as biochemical. The note with it: for inhibition at 1 µM: 1 μM (footnote *), read-out: % Inhibition at 1 μM (protein farnesyltransferase, values marked *); for inhibition at 10 µM: compared to uninhibited control. Summed up: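 Protein farnesyltransferase isolated from rat brain was purified following steps one through three of the Reiss et al. method, giving a specific activity of about 10 nmol substrate farnesylated/mg enzyme/hour. Activity was measured with a commercial Amersham scintillation proximity assay kit, using biotin-lamin as the acceptor substrate and radioactive farnesyl diphosphate as the donor.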

Regarding `CSCCN(Cc1ccc(Oc2ccccc2)cc1)C(=O)C1C(C(=O)O)C(C(=O)N(CCSC)Cc2ccc(Oc3ccccc3)cc2)C1C(=O)O` (stereo not drawn) [Example 69, (1α,2β,3β,4α)-1,3-Di[N-(2-methylthioethyl)-N-(4-phenoxybenzyl)aminocarbonyl]cyclobutane-2,4-dicarboxylic acid], the inhibition at 1 µM turned out to be 23% in experiment [1] and 31% in experiment [2].
Consider `CCCN(Cc1ccc(Sc2ccccc2)cc1)C(=O)C1C(C(=O)O)C(C(=O)N(CCC)Cc2ccc(Sc3ccccc3)cc2)C1C(=O)O` (stereo not shown) [Example 64], for which the inhibition at 1 µM in experiment [1] came to 33%. Besides, the inhibition at 10 µM in experiment [2] is 64%.
In experiment [1], `O=C(O)[C@H]1[C@H](C(=O)N(Cc2ccc(Oc3ccccc3)cc2)CC2CCCCC2)[C@H](C(=O)O)[C@H]1C(=O)N(Cc1ccc(Oc2ccccc2)cc1)CC1CCCCC1` [Example 91] came in with an inhibition at 1 µM of 41%. This compound also gave an inhibition at 10 µM in experiment [2] of 36%.
Regarding `CN(Cc1ccc(Oc2ccccc2)cc1)C(=O)[C@H]1[C@H](C(=O)O)[C@H](C(=O)N(C)Cc2ccc(Oc3ccccc3)cc2)[C@H]1C(=O)O` [Example 14, (1α,2β,3β,4α)-1,3-Di[N-methyl-N-(4-phenoxybenzyl)aminocarbonyl]cyclobutane-2,4-dicarboxylic acid], at 1 µM the inhibition in experiment [1] was 47%. Further, in experiment [2], the inhibition at 10 µM is 34%.
`C#CCN(Cc1ccc(Oc2ccccc2)cc1)C(=O)[C@H]1[C@H](C(=O)O)[C@H](C(=O)N(CC#C)Cc2ccc(Oc3ccccc3)cc2)[C@H]1C(=O)O` [Example 28, (1α,2β,3β,4α)-1,3-Di(N-propargyl-N-(4-phenoxybenzyl)aminocarbonyl)cyclobutane-2,4-dicarboxylic acid]: the inhibition at 10 µM worked out at 49% in experiment [1] and 28% in experiment [2].
In turn, `O=C(O)[C@H]1[C@H](C(=O)N(Cc2ccc(Oc3ccccc3)cc2)C2CCC2)[C@H](C(=O)O)[C@H]1C(=O)N(Cc1ccc(Oc2ccccc2)cc1)C1CCC1` [Example 99, (1α,2β,3β,4α)-1,3-Di[N-cyclobutyl-N-(4-phenoxybenzyl)aminocarbonyl]cyclobutane-2,4-dicarboxylic acid] returned an inhibition at 1 µM in experiment [1] of 20%. Also, the inhibition at 10 µM in experiment [2] stood at 52%.
The compound `CCCN(Cc1ccc(Oc2ccccc2)c(C)c1)C(=O)C1C(C(=O)O)C(C(=O)N(CCC)Cc2ccc(Oc3ccccc3)c(C)c2)C1C(=O)O` (stereo not drawn) [Example 59, (1α,2β,3β,4α)-1,3-Di{N-propyl-N-[(3-methyl-4-phenoxy)benzyl]aminocarbonyl}cyclobutane-2,4-dicarboxylic acid] came in with an inhibition at 1 µM in experiment [1] of 46%. Further, in experiment [2], the inhibition at 10 µM is 54%.
As to `CCCN(Cc1ccc(Oc2cccc(C)c2)cc1)C(=O)C1C(C(=O)O)C(C(=O)N(CCC)Cc2ccc(Oc3cccc(C)c3)cc2)C1C(=O)O` (stereo not drawn) [Example 57, (1α,2β,3β,4α)-1,3-Di{N-propyl-N-[4-(3-methylphenoxy)benzyl]aminocarbonyl}cyclobutane-2,4-dicarboxylic acid], the inhibition at 1 µM in experiment [1] is 37%; in experiment [2], 26%.
`O=C(O)[C@H]1[C@H](C(=O)N(Cc2ccc(Oc3ccccc3)cc2)CC2CCCC2)[C@H](C(=O)O)[C@H]1C(=O)N(Cc1ccc(Oc2ccccc2)cc1)CC1CCCC1` [Example 101, (1α,2β,3β,4α)-1,3-Di[N-cyclopentylmethyl-N-(4-phenoxybenzyl)aminocarbonyl]cyclobutane-2,4-dicarboxylic acid]: the inhibition at 1 µM in experiment [1] came to 34%; in experiment [2] it was 26%.
For the compound `C=CCN(Cc1ccc(Oc2ccccc2)cc1)C(=O)[C@H]1[C@H](C(=O)O)[C@H](C(=O)N(CC=C)Cc2ccc(Oc3ccccc3)cc2)[C@H]1C(=O)O` [Example 30, (1α,2β,3β,4α)-1,3-Di(N-allyl-N-(4-phenoxybenzyl)aminocarbonyl)cyclobutane-2,4-dicarboxylic acid], the inhibition at 10 µM in experiment [1] amounted to 63%; in experiment [2] it was 37%.
Take `CC(C)CN(Cc1ccc(Oc2ccccc2)cc1)C(=O)[C@H]1[C@H](C(=O)O)[C@H](C(=O)N(Cc2ccc(Oc3ccccc3)cc2)CC(C)C)[C@H]1C(=O)O` [Example 25, (1α,2β,3β,4α)-1,3-Di(N-isobutyl-N-(4-phenoxybenzyl)aminocarbonyl)cyclobutane-2,4-dicarboxylic acid]: in experiment [1], the inhibition at 1 µM was 24%. For the same compound, at 10 µM the inhibition in experiment [2] was 59%.
For the compound `COc1cccc(CCN(Cc2ccc(Oc3ccccc3)cc2)C(=O)[C@H]2[C@H](C(=O)O)[C@H](C(=O)N(CCc3cccc(OC)c3)Cc3ccc(Oc4ccccc4)cc3)[C@H]2C(=O)O)c1` [Example 76, (1α,2β,3β,4α)-1,3-Di[N-(4-phenoxybenzyl)-N-(3-methoxyphenethyl)aminocarbonyl]cyclobutane-2,4-dicarboxylic acid], the inhibition at 1 µM in experiment [1] stood at 23%. Further, the inhibition at 10 µM in experiment [2] turned out to be 66%.
As to `O=C(O)[C@H]1[C@H](C(=O)N(Cc2ccc(Oc3ccccc3)cc2)C2CC2)[C@H](C(=O)O)[C@H]1C(=O)N(Cc1ccc(Oc2ccccc2)cc1)C1CC1` [Example 31, (1α,2β,3β,4α)-1,3-Di[N-cyclopropyl-N-(4-phenoxybenzyl)aminocarbonyl]cyclobutane-2,4-dicarboxylic acid], testing at 1 µM in experiment [1] gave an inhibition of 23%. The inhibition at 10 µM in experiment [2] turned out to be 74%.
Take `O=C(O)[C@H]1[C@H](C(=O)N(Cc2ccccc2)Cc2ccc(Oc3ccccc3)cc2)[C@H](C(=O)O)[C@H]1C(=O)N(Cc1ccccc1)Cc1ccc(Oc2ccccc2)cc1` [Example 16, (1α,2β,3β,4α)-1,3-Di[N-benzyl-N-(4-phenoxybenzyl)aminocarbonyl]cyclobutane-2,4-dicarboxylic acid]: testing at 1 µM in experiment [1] gave an inhibition of 25%. In experiment [2], this compound yielded an inhibition at 10 µM of 98%.
Regarding `CCCCCN(Cc1ccc(Oc2ccccc2)cc1)C(=O)[C@H]1[C@H](C(=O)O)[C@H](C(=O)N(CCCCC)Cc2ccc(Oc3ccccc3)cc2)[C@H]1C(=O)O` [Example 29, (1α,2β,3β,4α)-1,3-Di(N-pentyl-N-(4-phenoxybenzyl)aminocarbonyl)cyclobutane-2,4-dicarboxylic acid], the inhibition at 10 µM in experiment [1] worked out at 50%; in experiment [2] it was 38%.
In the case of `O=C(O)[C@H]1[C@H](C(=O)N(CCCCc2ccccc2)Cc2ccc(Oc3ccccc3)cc2)[C@H](C(=O)O)[C@H]1C(=O)N(CCCCc1ccccc1)Cc1ccc(Oc2ccccc2)cc1` [Example 80, (1α,2β,3β,4α)-1,3-Di [N-(4-phenoxybenzyl)-N-(4-phenyl-1-butyl)aminocarbonyl]cyclobutane-2,4-dicarboxylic acid], testing at 1 µM in experiment [1] gave an inhibition of 42%. In experiment [2], this compound gave an inhibition at 10 µM of 51%.
For `COCCN(Cc1ccc(Oc2ccccc2)cc1)C(=O)C1C(C(=O)O)C(C(=O)N(CCOC)Cc2ccc(Oc3ccccc3)cc2)C1C(=O)O` (stereo not drawn) [Example 68, (1α,2β,3β,4α)-1,3-Di[N-(2-methoxyethyl)-N-(4-phenoxybenzyl)aminocarbonyl]cyclobutane-2,4-dicarboxylic acid], in that order: 52% and 49%.
For `CC(C)N(Cc1ccc(Oc2ccccc2)cc1)C(=O)[C@H]1[C@H](C(=O)O)[C@H](C(=O)N(Cc2ccc(Oc3ccccc3)cc2)C(C)C)[C@H]1C(=O)O` [Example 24], the inhibition at 10 µM in experiment [1] was 85%; in experiment [2] it was 31%.
Consider `COc1ccc(CN(Cc2ccc(Oc3ccccc3)cc2)C(=O)[C@H]2[C@H](C(=O)O)[C@H](C(=O)N(Cc3ccc(OC)cc3)Cc3ccc(Oc4ccccc4)cc3)[C@H]2C(=O)O)cc1` [Example 89], for which the inhibition at 1 µM in experiment [1] was found to be 47%. The inhibition at 10 µM in experiment [2] worked out at 50%.
In the case of `O=C(O)[C@H]1[C@H](C(=O)N(Cc2ccc(Oc3ccccc3)cc2)CC2CC2)[C@H](C(=O)O)[C@H]1C(=O)N(Cc1ccc(Oc2ccccc2)cc1)CC1CC1` [Example 93, (1α,2β,3β,4α)-1,3-Di[N-Cyclopropylmethyl-N-(4-phenoxybenzyl)aminocarbonyl]cyclobutane-2,4-dicarboxylic acid], the inhibition at 1 µM in experiment [1] came out at 52%. The compound further came in with an inhibition at 10 µM in experiment [2] of 74%.
